Results as given in patent publication US20230085307A1, “PYRIDAZINONE COMPOUND AND HERBICIDE” (NISSAN CHEMICAL CORPORATION, priority 2019, published 2023).

Tests used:
beet [1] = experiment: Test Example 4: effect on crop by soil treatment (Table 19, symbol f); type: in vivo; conditions: amount of applied herbicide 320 g/ha
Source text: (§1) [Test Example 4] Herbicidal Effect Test by Soil Treatment
(§2) Sterilized diluvial soil was placed in a plastic box having a length of 21 cm, a width of 13 cm, and a depth of 7 cm. The seeds of each of southern crabgrass, green foxtail, barnyard grass, wild oat, blackgrass, Italian ryegrass, windgrass, velvetleaf, redroot pigweed, lambsquarters, chickweed, false cleavers, persian speedwell, corn, soybean, rice, wheat, beet, and rapeseed were sowed in a spot-like manner and covered with the soil having a thickness of about 1.5 cm. Subsequently, the emulsion agent of the compound of the present invention prepared according to Formulation Example 2 was diluted with water so as to achieve a predetermined herbicide amount, and the diluted emulsion agent was uniformly applied to the surface of the soil with a small-sized spray. The plastic box was placed in a greenhouse at 25° C. to 30° C. for growth of the plants. Three weeks after the herbicide application, the effect of the herbicide on each plant was evaluated according to the criteria of Test Example 1.

rapeseed [2] = experiment: Test Example 4: effect on crop by soil treatment (Table 19, symbol g); type: in vivo; conditions: amount of applied herbicide 320 g/ha
Source text: as §1, §2

southern crabgrass = experiment: Test Example 5: herbicidal effect by foliage application, plastic box (Table 20, symbol F); type: in vivo, southern crabgrass (Digitaria ciliaris); conditions: foliage application, 320 g/ha, evaluated three weeks after application
In short: (§3)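 Foliar spray test: emulsion formulation diluted in water to a set application rate, sprayed onto 14-day-old plants raised in diluvial soil at 25° C to 30° C under glass. Both herbicidal effect and crop effect rated visually three weeks later.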

green foxtail = experiment: Test Example 5: herbicidal effect by foliage application, plastic box (Table 20, symbol G); type: in vivo, green foxtail (Setaria viridis); conditions: foliage application, 320 g/ha, evaluated three weeks after application
In short: as §3

barnyard grass = experiment: Test Example 5: herbicidal effect by foliage application, plastic box (Table 20, symbol H); type: in vivo, barnyard grass (Echinochloa crus-galli); conditions: foliage application, 320 g/ha, evaluated three weeks after application
In short: as §3

wild oat = experiment: Test Example 5: herbicidal effect by foliage application, plastic box (Table 20, symbol I); type: in vivo, wild oat (Avena fatua); conditions: foliage application, 320 g/ha, evaluated three weeks after application
In short: as §3

blackgrass = experiment: Test Example 5: herbicidal effect by foliage application, plastic box (Table 20, symbol J); type: in vivo, blackgrass (Alopecurus myosuroides); conditions: foliage application, 320 g/ha, evaluated three weeks after application
In short: as §3

Italian ryegrass = experiment: Test Example 5: herbicidal effect by foliage application, plastic box (Table 20, symbol K); type: in vivo, Italian ryegrass (Lolium multiflorum); conditions: foliage application, 320 g/ha, evaluated three weeks after application
In short: as §3

windgrass = experiment: Test Example 5: herbicidal effect by foliage application, plastic box (Table 20, symbol L); type: in vivo, windgrass (Apera spica-venti); conditions: foliage application, 320 g/ha, evaluated three weeks after application
In short: as §3

velvetleaf = experiment: Test Example 5: herbicidal effect by foliage application, plastic box (Table 20, symbol M); type: in vivo, velvetleaf (Abutilon theophrasti); conditions: foliage application, 320 g/ha, evaluated three weeks after application
In short: as §3

redroot pigweed = experiment: Test Example 5: herbicidal effect by foliage application, plastic box (Table 20, symbol N); type: in vivo, redroot pigweed (Amaranthus retroflexus); conditions: foliage application, 320 g/ha, evaluated three weeks after application
In short: as §3

lambsquarters = experiment: Test Example 5: herbicidal effect by foliage application, plastic box (Table 20, symbol O); type: in vivo, lambsquarters (Chenopodium album); conditions: foliage application, 320 g/ha, evaluated three weeks after application
In short: as §3

chickweed = experiment: Test Example 5: herbicidal effect by foliage application, plastic box (Table 20, symbol P); type: in vivo, common chickweed (Stellaria media); conditions: foliage application, 320 g/ha, evaluated three weeks after application
In short: as §3

persian speedwell = experiment: Test Example 5: herbicidal effect by foliage application, plastic box (Table 20, symbol R); type: in vivo, Persian speedwell (Veronica persica); conditions: foliage application, 320 g/ha, evaluated three weeks after application
In short: as §3

corn = experiment: Test Example 5: effect on crop by foliage application, plastic box (Table 20, symbol c); type: in vivo; conditions: 320 g/ha, evaluated three weeks after application
Source text: (§4) [Test Example 5] Herbicidal Effect Test by Foliage Application
as §2, with “Thereafter, the plants were grown in a greenhouse at 25° C. to 30° C. After 14-day growth of the plants,” for “Subsequently,”, “a foliage part” for “the surface of the soil”, “spray.” for “spray. The plastic box was placed in a greenhouse at 25° C. to 30° C. for growth of the plants.”

soybean = experiment: Test Example 5: effect on crop by foliage application, plastic box (Table 20, symbol d); type: in vivo; conditions: 320 g/ha, evaluated three weeks after application
Source text: as §4
as §2, with “Thereafter, the plants were grown in a greenhouse at 25° C. to 30° C. After 14-day growth of the plants,” for “Subsequently,”, “a foliage part” for “the surface of the soil”, “spray.” for “spray. The plastic box was placed in a greenhouse at 25° C. to 30° C. for growth of the plants.”

wheat = experiment: Test Example 5: effect on crop by foliage application, plastic box (Table 20, symbol e); type: in vivo; conditions: 320 g/ha, evaluated three weeks after application
Source text: as §4
as §2, with “Thereafter, the plants were grown in a greenhouse at 25° C. to 30° C. After 14-day growth of the plants,” for “Subsequently,”, “a foliage part” for “the surface of the soil”, “spray.” for “spray. The plastic box was placed in a greenhouse at 25° C. to 30° C. for growth of the plants.”

beet [3] = experiment: Test Example 5: effect on crop by foliage application, plastic box (Table 20, symbol f); type: in vivo; conditions: 320 g/ha, evaluated three weeks after application
Source text: as §4
as §2, with “Thereafter, the plants were grown in a greenhouse at 25° C. to 30° C. After 14-day growth of the plants,” for “Subsequently,”, “a foliage part” for “the surface of the soil”, “spray.” for “spray. The plastic box was placed in a greenhouse at 25° C. to 30° C. for growth of the plants.”

rapeseed [4] = experiment: Test Example 5: effect on crop by foliage application, plastic box (Table 20, symbol g); type: in vivo; conditions: 320 g/ha, evaluated three weeks after application
Source text: as §4
as §2, with “Thereafter, the plants were grown in a greenhouse at 25° C. to 30° C. After 14-day growth of the plants,” for “Subsequently,”, “a foliage part” for “the surface of the soil”, “spray.” for “spray. The plastic box was placed in a greenhouse at 25° C. to 30° C. for growth of the plants.”

COc1ccccc1-c1sc2ccc(C3CC3)cc2c1-c1c(O)c(C)nn(C)c1=O [Compound No. 2-160, 4-(5-cyclopropyl-2-(2-methoxyphenyl)benzo[b]thiophen-3-yl)-5-hydroxy-2,6-dimethylpyridazin-3(2H)-one]
f: beet, effect on crop rating (beet [1]): 0 (Herbicidal rate of 5% or less (almost no effect)) | g: rapeseed, effect on crop rating (rapeseed [2]): 1 (Herbicidal rate of 5% or more and less than 20%) | herbicidal effect on F: southern crabgrass (criteria 0-5) (southern crabgrass): 0 (Herbicidal rate of 5% or less (almost no effect)) | herbicidal effect on G: green foxtail (criteria 0-5) (green foxtail): 4 (Herbicidal rate of 70% or more and less than 90%) | herbicidal effect on H: barnyard grass (criteria 0-5) (barnyard grass): 4 (Herbicidal rate of 70% or more and less than 90%) | herbicidal effect on I: wild oat (criteria 0-5) (wild oat): 0 (Herbicidal rate of 5% or less (almost no effect)) | herbicidal effect on J: blackgrass (criteria 0-5) (blackgrass): 4 (Herbicidal rate of 70% or more and less than 90%) | herbicidal effect on K: Italian ryegrass (criteria 0-5) (Italian ryegrass): 3 (Herbicidal rate of 40% or more and less than 70%) | herbicidal effect on L: windgrass (criteria 0-5) (windgrass): 5 (Herbicidal rate of 90% or more (almost completely withered)) | herbicidal effect on M: velvetleaf (criteria 0-5) (velvetleaf): 4 (Herbicidal rate of 70% or more and less than 90%) | herbicidal effect on N: redroot pigweed (criteria 0-5) (redroot pigweed): 5 (Herbicidal rate of 90% or more (almost completely withered)) | herbicidal effect on O: lambsquarters (criteria 0-5) (lambsquarters): 2 (Herbicidal rate of 20% or more and less than 40%) | herbicidal effect on P: chickweed (criteria 0-5) (chickweed): 5 (Herbicidal rate of 90% or more (almost completely withered)) | herbicidal effect on R: persian speedwell (criteria 0-5) (persian speedwell): 5 (Herbicidal rate of 90% or more (almost completely withered)) | effect on crop c: corn (criteria 0-5) (corn): 0 (Herbicidal rate of 5% or less (almost no effect)) | effect on crop d: soybean (criteria 0-5) (soybean): 3 (Herbicidal rate of 40% or more and less than 70%) | effect on crop e: wheat (criteria 0-5) (wheat): 1 (Herbicidal rate of 5% or more and less than 20%) | effect on crop f: beet (criteria 0-5) (beet [3]): 5 (Herbicidal rate of 90% or more (almost completely withered)) | effect on crop g: rapeseed (criteria 0-5) (rapeseed [4]): 5 (Herbicidal rate of 90% or more (almost completely withered)) | melting point: 182 to 184 °C
